Laboratory results from publication PMC8476055, “Synthesis and Biological Activity of Triterpene–Coumarin Conjugates” (Journal of Natural Products, 2021).
Where “and” joins values, the source holds several entries; their conditions need not be identical. Identical values can stand only once.

Legend:
HT29 cells [1] = test: Annexin V-FITC/PI flow cytometry (apoptosis), HT29; assay type: cell-based, human; settings: HT29, 72 h at IC50 concentration, mean ± S.E.M.
Experimental: In consideration of the cytotoxic results of these triterpene conjugates with the three cell lines assayed, three MA–diamine–coumarin conjugates (1, 4, and 7) and the MA–coumarin conjugate 10 were selected for the following cytometry studies on the three cancer cell lines. Thus, the apoptotic determination assays were performed through double staining with Annexin V (An-V), conjugated fluorescein isothiocyanate (FITC), and propidium iodide (PI). […] The values of percentage of total apoptosis were expressed as means ± SEM of at least two duplicate experiments (Figure 1).
Apoptosis was assessed by flow cytometry using a FACScan (fluorescence-activated cell sorter) flow cytometer (Coulter Corporation, Hialeah, FL, USA). For these assays, 5 × 10^4 B16–F10, 6 × 10^4 HT29 cells, and 15 × 10^4 Hep G2 cells were placed in 24-well plates with 1.5 mL of medium and incubated for 24 h. Subsequently, the cells were treated with the selected compounds in triplicate for 72 h at their corresponding IC50 concentrations. The cells were collected and resuspended in a binding buffer (10 mM HEPES/NaOH, pH 7.4, 140 mM NaCl, 2.5 mM CaCl2). Annexin V-FITC conjugate (1 mg/mL) was then added and incubated for 15 min at room temperature in darkness. Just before the analysis by flow cytometry, cells were stained with 20 μL of 1 mg/mL PI solution. In each experiment, approximately 10 × 10^3 cells were analyzed, and the experiment was duplicated twice.

HT29 cells [2] = test: Cell-cycle distribution by PI flow cytometry, HT29; assay type: cell-based, human; settings: HT29, 72 h at IC50 concentration
Experimental: Based on the cytotoxicity shown by derivatives 1, 4, 7, and 10, a study was made concerning their effects on the distribution of the cell cycle in order to determine possible cytostatic effects caused by the cytotoxic response. The percentages of cells in the different phases of the cycle were analyzed at 72 h, by the incorporation of propidium iodide. […] The values of cell percentage were expressed as means ± SEM of at least two independent experiments performed in triplicate. Flow cytometry was also used to measure DNA ploidy and alterations in cell-cycle profiles. The DNA content is proportional to the fluorescence of propidium iodide, enabling the percentage of cells to be determined in each phase of the cycle and the cell subpopulations with different DNA contents to be visualized.
The method used to quantify the amount of DNA in the different phases of the cell cycle (G0/G1, S, and G2/M) was performed by flow cytometry, using a fluorescence-activated cell sorter (FACS) at 488 nm in an Epics XL flow cytometer (Coulter Corporation, Hialeah, FL, USA). For this assay, 5 × 10^4 B16–F10, 6 × 10^4 HT29 cells, and 15 × 10^4 Hep G2 cells were placed in 24-well plates with 1.5 mL of medium and incubated for 24 h. After this time, the cells were treated with the different selected compounds for 72 h at their corresponding IC50 concentrations. After treatment, the cells were washed twice with PBS, trypsinized, and resuspended in 1X TBS (10 mM Tris and 150 mM NaCl); thereafter, Vindelov buffer (100 mM Tris, 100 mM NaCl, 10 mg/mL Rnase, and 1 mg/mL PI, at pH 8) was added. Cells were stored on ice and, just before measurement, were stained with 10 μL of 1 mg/mL PI solution. Approximately, 10 × 10^3 cells were analyzed in each experiment. The experiments were performed three times with two replicates per assay.

[3] = system: B16–F10 murine melanoma cells; test: MTT cell proliferation assay, B16–F10 cells; assay type: cell-based; settings: Mus musculus, 72 h treatment, untreated control = 100% viability, read-out: IC50, growth inhibition of B16–F10 cells
Experimental: These studies were performed using a 3-(4,5-dimethylthiazol-2-yl)-2,5-diphenyltetrazolium bromide (MTT) assay, with increasing concentration levels of each compound (0–200 μg/mL). Cell viability was determined after treatment for 72 h, by absorption of a formazan dye.
[…] ATTC HTB-38), Hep G2 human hepatocyte carcinoma cells (ECACC 85011430), nontumor human epithelial lung fibroblast cells HPF (ScienCell catalog (cat.) no. 3300), nontumor rat ileum cells IEC-18 (ECACC no. 88011801), and nontumor human embryo liver cells (ECACC 89121403) were cultured in DMEM medium supplemented with 2 mM glutamine, 10% heat-inactivated fetal bovine serum (FCS), 10.000 units/mL penicillin, and […]. These cells were incubated at 37 °C in an atmosphere of 5% CO2 and 95% humidity. The culture media were changed every 48 h, and the confluent cultures were separated with a trypsin solution (0.25% EDTA). Subconfluent monolayer cells were used in all experiments. All cell lines used were provided by the cell bank of the University of Granada (Spain).
The effect of the synthesized compounds on the viability of tumor cells was assessed using an MTT assay, based on the ability of living cells to cleave the tetrazolium ring, thus producing formazan, which absorbs at 570 nm. […] For an evaluation of the cytotoxic effects of these compounds, the cells were seeded in 96-well plates at an initial density of 5 × 10^3 B16–F10 cells, 6 × 10^3 HT29 cells, 15 × 10^3 Hep G2 cells, 8 × 10^3 HPF cells, 15 × 10^3 IEC-18 cells, and 11 × 10^3 WRL68 cells, per well. After incubation for 24 h, the cells were treated with the synthesized compounds in triplicate, at different concentrations (0–200 μg/mL), and incubated for 72 h. Thereafter, 100 μL of MTT solution (0.5 mg/mL) were added to each well. After 2 h of incubation, the cells were washed twice with phosphate buffered saline (PBS), and the formazan was resuspended in 100 μL of DMSO. Relative cell viability, with respect to untreated control cells, was measured by absorbance at 550 nm on an ELISA plate reader (Tecan Sunrise MR20-301, TECAN, Austria). […] These experiments were measured and compared to the control after 72 h of treatment.

Row | Structure (SMILES) | Early Apoptosis (HT29 cells [1]) | Late Apoptosis (HT29 cells [1]) | Necrosis (HT29 cells [1]) | Total Apoptosis (HT29 cells [1]) | Viable Cells (HT29 cells [1]) | percentage of cells in the G0/G1 phase (HT29 cells [2]) | IC50 [3]
1 | CC1(C)CC[C@]2(C(=O)NCCCNC(=O)Cc3cc(=O)oc4cc(O)ccc34)CC[C@]3(C)C(=CC[C@@H]4[C@@]5(C)C[C@@H](O)[C@H](O)C(C)(C)[C@@H]5CC[C@]43C)[C@@H]2C1 [Compound 4, 2α,3β-Dihydroxy-N-(3′-(2″-(7‴-hydroxy-2‴-oxo-2‴H-chromen-4‴-yl)acetamido)propyl)olean-12-en-28-amide] | 32.0 ± 2.3% | 20.5 ± 3.0% | 6.2 ± 0.9% | 52.4 ± 3.0% | 41.4 ± 3.8% | greater than 70% | > 10 µM
2 | CC1(C)CC[C@]2(C(=O)NCCCNC(=O)c3cc4ccccc4oc3=O)CC[C@]3(C)C(=CC[C@@H]4[C@@]5(C)C[C@@H](O)[C@H](O)C(C)(C)[C@@H]5CC[C@]43C)[C@@H]2C1 [Compound 1, 2α,3β-Dihydroxy-N-(3′-(2″-oxo-2″H-chromene-3″-carboxamido)propyl)olean-12-en-28-amide] | 10.8 ± 0.6% | 29.2 ± 0.5% | 3.7 ± 0.9% | 40.0 ± 0.5% | 56.3 ± 1.3% | – | > 10 µM
3 | CC1(C)CC[C@]2(C(=O)O)CC[C@]3(C)C(=CC[C@@H]4[C@@]5(C)C[C@@H](OC(=O)c6cc7ccccc7oc6=O)[C@H](OC(=O)c6cc7ccccc7oc6=O)C(C)(C)[C@@H]5CC[C@]43C)[C@@H]2C1 [Compound 10] | 23.8 ± 4.2% | 34.1 ± 4.9% | 6.5 ± 0.0% | 57.9 ± 1.6% and 58% | 35.7 ± 2.3% | greater than 70% | 0.6 µM
4 | CC1(C)CC[C@]2(C(=O)NCCCNC(=O)/C=C/c3ccc(O)cc3)CC[C@]3(C)C(=CC[C@@H]4[C@@]5(C)C[C@@H](O)[C@H](O)C(C)(C)[C@@H]5CC[C@]43C)[C@@H]2C1 [Compound 7, 2α,3β-Dihydroxy-N-(3′-((E)-3″-(4‴-hydroxyphenyl)acrylamido)propyl)olean-12-en-28-amide] | 16.2 ± 3.6% | 29.4 ± 1.6% | 1.5 ± 0.4% | 45.6 ± 2.0% | 52.9 ± 2.0% | greater than 70% | 10.4 ± 0.2 µM
